Experimental findings from patent US8173649B2, “Glucokinase activator” (Kyorin Pharmaceutical Co., Ltd., priority 2006, dated 2012) are described below.

Data set [1] is described as follows: In vivo pharmacokinetics test (oral bioavailability). Details: species or system mice. The settings on record: male, ICR, mouse, plasma, 2 μmol/kg. How it is done: Using male 6-week-old ICR mice (Charles River Laboratories Japan), the oral bioavailability of each test compound was evaluated. Specifically, each test compound was dissolved in dimethylsulfoxide (DMSO, Sigma) and the solution was added to a 1/15 M aqueous solution of sodium dihydrogen phosphate (Wako Pure Chemical Industries) to a concentration of 200 μM. DMSO was added to a final concentration of 30%. The resulting solution was administered to animals. As an intravenous injection group, a group of ICR mice, fasted overnight, were injected in their tail veins with the test compound solution (1 μmol/kg, 5 mL/kg). 5, 15 and 30 minutes after and 1, 2, 4, 8 and 24 hours after the intravenous administration, blood samples were collected from the eyeground of each animal using a heparin-coated capillary tube. […] 10 μL of the separated plasma was diluted with 100 μL of physiological saline and 10 μL of dimethylsulfoxide (sigma) and analyzed by a liquid chromatography-equipped triple quadrupole mass spectrometer (API-3000, Applied Biosystems) for the plasma concentration of unchanged product. The area under the plasma concentration-time curve (AUC) was determined by the trapezoidal method. The bioavailability of a test compound was determined by dividing the average AUC of the oral administration group corrected for the dose by the average AUC of the intravenous administration group.

The nature of another data set: in vitro. The note with it: microsomes, pH 7.4. As to the method:
In a glass test tube, each test compound was incubated with a solution containing liver microsomes of human (Xenotech) or murine (originally prepared from male 7-week-old ICR mice; Charles River Laboratories Japan) origin at 37° C. for 25 min to evaluate the metabolic stability of the compound. The incubation mixture contained 100 mM potassium phosphate buffer (pH 7.4, Wako Pure Chemical Industries), 3 mM MgCl2 (Wako Pure Chemical Industries), 5 mM glucose-6-phosphate (Roche), 1 mM EDTA (Tokyo Chemical Industry), 1 I.U. glucose 6-phosphate dehydrogenase (Roche) and 0.2 mg/mL liver microsome. A test compound was dissolved in DMSO and the solution was added to the reaction mixture to a final concentration of 1 μM. The metabolic process was initiated by the addition of an NADPH (Roche) solution to a final concentration of 1 mM and was terminated after 25 min by the addition of an equal volume of acetonitrile (Fischer). After termination of the process, the supernatant was separated by centrifugation and analyzed by a liquid chromatography-equipped mass spectrometer (SHIMADZU 2010A, Shimadzu) for the concentration of unchanged product.

The nature of data set [2]: In vitro liver microsome metabolic stability test, Method 1, human. The format is in vitro ADME. The settings on record: microsomes.
Procedure: (§1) In a glass test tube, each test compound was incubated with a solution containing liver microsomes of human (Xenotech) or murine (originally prepared from male 7-week-old ICR mice; Charles River Laboratories Japan) origin at 37° C. for 5 min to evaluate the metabolic stability of the compound. The incubation mixture contained 100 mM potassium phosphate buffer (pH 7.4, Wako Pure Chemical Industries), 3 mM MgCl2 (Wako Pure Chemical Industries), 5 mM glucose-6-phosphate (Roche), 1 mM EDTA (Tokyo Chemical Industry), 1 I.U. glucose 6-phosphate dehydrogenase (Roche) and 1 mg/mL liver microsome. A test compound was dissolved in DMSO and the solution was added to the reaction mixture to a final concentration of 1 μM. The metabolic process was initiated by the addition of an NADPH (Roche) solution to a final concentration of 1 mM and was terminated after 5 min by the addition of an equal volume of acetonitrile (Fischer). After termination of the process, the supernatant was separated by centrifugation and analyzed by a liquid chromatography-equipped mass spectrometer (SHIMADZU 2010A, Shimadzu) for the concentration of unchanged product.
Data set [3] can be described thus: In vitro liver microsome metabolic stability test, Method 1, murine. Type of data set: in vitro ADME, mice. The settings on record: mouse, microsomes.
Procedure: as §1
Another data set concerns ICR mice. Kind of data set: Hypoglycemic activity test. The note with it: statement in words in the description. The format is in vivo. As to the method:
Using male 7- to 9-week-old ICR mice (Charles River Laboratories Japan), the effect of each test compound on the blood glucose levels was observed. Specifically, each compound was dissolved in a 60:40 mixture of Gelucire44/14 (Gatefosse) and PEG400 and was orally administered to the animals after a 2-hour fasting period (30 mg/kg, 10 mL/kg). Using a tube coated with dipotassium ethylenediamine tetraacetate, blood samples were collected from the tail vein immediately before administration (Pre-value), and 0.5, 2 and 4 hours after administration. The blood samples were centrifuged (4° C., 3,600 g, 3 min) to obtain plasma samples.
Each sample was diluted 5-fold with physiological saline and the blood glucose level was measured using glucose CII-test Wako (Wako Pure Chemical Industries). 10 μL each of one of the samples, physiological saline and a 100 mg/dL standard glucose solution (200 mg/dL standard glucose solution diluted two-fold with physiological saline) were placed in each well of a 96-well flat plate. 150 μL of a color-forming solution was added to each well and the plate was left at 37° C. for 5 min to allow the solution to develop color. Using a Lucy2 luminescence reader (Aloka), the measurements were taken at OD=492 nm. The decrease in the sigma glucose (mean decrease in the glucose levels at each blood collection point relative to the Pre-value) was determined from the decrease in the glucose level at each blood collection point relative to the Pre-value.

`CS(=O)(=O)c1ccc(C(C[C@H]2C[C@@H](F)[C@@H](F)C2)C(=O)Nc2nccs2)cc1` (single isomer, unassigned; (-)) [Compound No. 1, (−)-3-[(1α,3α,4α)-3,4-difluorocyclopentyl]-2-(4-(methylsulfonyl)phenyl)-N-(thiazole-2-yl)propionamide] registered a bioavailability in data set [1] not below 50%. The microsomal CLint at 1 μM in “in vitro” (human) was not above 50 µL/min/mg; in “in vitro” (male, ICR, mouse) it was not above 50 µL/min/mg; in data set [2] (pH 7.4) it was not above 60 µL/min/mg; in data set [3] (male, ICR, pH 7.4) it was not above 60 µL/min/mg.

As for `CS(=O)(=O)c1ccc([C@H](CC2CC(F)C(F)C2)C(=O)Nc2nccs2)cc1` (single isomer, unassigned; (+)) [compound 2, (+)-3-[(1α,3α,4α)-3,4-difluorocyclopentyl]-2-(4-(methylsulfonyl)phenyl)-N-(thiazole-2-yl)propionamide], the hypoglycemic activity result with ICR mice is listed as “do not exhibit high hypoglycemic activity”.

With `CS(=O)(=O)c1ccc(C(CC2CC(F)C(F)C2)C(=O)Nc2nccs2)cc1` (single isomer, unassigned; (-)) [compound 7, (−)-3-[(1β,3α,4α)-3,4-difluorocyclopentyl]-2-(4-(methylsulfonyl)phenyl)-N-(thiazole-2-yl)propionamide], the hypoglycemic activity result in the data set on ICR mice is recorded as “do not exhibit high hypoglycemic activity”.

As to `Cn1ccc(NC(=O)C(CC2CC(F)C(F)C2)c2ccc(S(C)(=O)=O)cc2)n1` (single isomer, unassigned; (-)) [compound 3, (−)-3-[(1α,3α,4α)-3,4-difluorocyclopentyl]-2-(4-(methylsulfonyl)phenyl)-N-(1-methylpyrazole-3-yl)propionamide], the metabolic clearance in data set [2] and in data set [3] was not above 0.06 mL/min/mg protein in each case.

For the compound `CS(=O)(=O)c1ccc(C(CC2CC(F)C(F)C2)C(=O)Nc2nccs2)cc1` (single isomer, unassigned; (+)) [compound 8, (+)-3-[(1β,3α,4α)-3,4-difluorocyclopentyl]-2-(4-(methylsulfonyl)phenyl)-N-(thiazole-2-yl)propionamide], in the data set with ICR mice, the hypoglycemic activity entry is “do not exhibit high hypoglycemic activity”.
